This note sets out measurements from patent publication US20240180930A1, “CARBONIC ANHYDRASE 1 (CA1) INHIBITORS FOR THE TREATMENT OR PREVENTION OF MYELOPROLIFERATIVE DISORDERS AND OTHER HEMATOPOIETIC MALIGNANCIES, AND AS BIOMARKER OF MYELOPROLIFERATIVE DISORDERS AND OTHER HEMATOPOIETIC MALIGNANCIES” (COMMISSARIAT A L'ENERGIE ATOMIQUE ET AUX ENERGIES …, priority 2021, published 2024).

Assay [1] deals with mice transplanted with JAK2^V617F BM cells. The experiment in a line: Single irradiated-leg mouse model of Polycythemia Vera, pharmacologic treatment. In kind it is in vivo. The source says:
Mice. The conditional flexed Jak2^V617F KI mice (Hasan et al.; Blood 122, 1464-1477; 2013) were crossed with VavCre transgenic (TG) mice (Croker et al., SOCS3 Is a Critical Physiological Negative Regulator of G-CSF Signaling and Emergency Granulopoiesis. Immunity 20, 153-165 (2004)) to express the mutant Jak2. To easily evaluate allele burden in kinetic experiments, Jak2^V617F KI/VavCre mice were also crossed with UbiGFP TG mice in Gustave Roussy' animal facilities. For one-leg transplantation, F1 crossed B6.SJL/BoyJ (CD45.1)×C57BL/6J (CD45.2) mice were used as recipient mice. All mice were housed in a specific pathogen-free section at an animal facility of CEA/DRF/IBFJ/iRCM according to the institutional guidelines and French Ministry of Agriculture's regulations.
One leg irradiation and transplantation. Recipient mice were anesthetized with ketamine-xylazine and their leg was fixed on a tray with only the leg left towards the opposite side to their body. The tray was put in the radiation field of a GSRD1 radiation equipment. The mouse body was shielded from irradiation with lead plates and the leg was irradiated at 2×5 Gy with an interval of 17 h. Bone marrow (BM) cells (1×10^7) were intravenously transplanted into the irradiated mice 7 hours after the second irradiation. For barcode and shRNA experiments, 10,000 transduced Lin^−Scal^+cKit^+ (LSK) hematopoietic cells were intrafemorally transplanted into irradiated leg under Isoflurane anesthetic.
Blood analysis. Blood was collected and analyzed through a hemocytometer (CD3700, ABBOTT). The rest of blood was subjected to hemolysis by using an ammonium chloride solution ([…]). The hemolyzed blood were stained with antibodies against CD45.1 (A20) and CD45.2 (104) and analyzed through flow cytometry to examine blood chimerism.
BM cells (femur and tibia) of irradiated leg and of non-irradiated leg were harvested by flushing with 1 mL of PBS. After centrifugation, BM supernatants were collected and kept at -80° C. with anti-protease (ROCHE) for chemokine analyses. BM cells were suspended in PBS and splenocytes were also collected in PBS by crushing spleen on a 70 μm filter. Before hemolysis, cells were stained with Ter119 (TER-119) and CD71 (C2) antibodies for the examination of erythroid compartments. The rest of cells were hemolyzed and stained for analyses of granulocytes, hematopoictic progenitor cells (HPCs) and hematopoietic stem cells (HSCs) by using antibodies against CD45.1 (A20), CD45.2 (104), CD11b (M1/70), Gr-1 (RB6-8C5), c-Kit (2B6), Sca-1 (D7 or E13-161.7), CD34 (RAM34 or MEC14.7), CD16/32 (93), CD48 (HM48-1) and CD150 (TC15-12F12.2). […] For cell cycle analyses, stained HSPCs were permeabilized with Cytofix/Cytoperm buffer following manufacturer's instructions (BD Biosciences) and labelled with anti-Ki67 antibody (SolA15) and Hoechst 33342. All antibodies were purchased from BioLegend, eBioscience, or BD Biosciences. Flow cytometry analyses were performed through FACS Canto II (BD Biosciences) and LSR II (BD Biosciences), and cell sorting was conducted by using FACS Aria II (BD Biosciences). Analyses were performed with the FlowJo software (TRISTAR) and illustrated with the Prism7 software (GraphPad).
Pharmacologic treatment. Furosemide was purchased from Sigma (MKCF8657), dissolved in DMSO for stock solution (50 mg/mL) and diluted in PBS solution prior to use. […] Spironolactone (SIGMA) was prepared in water bottles at 250 mg/Kg to treat recipient mice as described (Rafael-Fortney et al., Early treatment with lisinopril and spironolactone preserves cardiac and skeletal muscle in duchenne muscular dystrophy mice »; Circulation, 2011; 124:582-8). Acetozolamide was purchased from SIGMA (A6011), dissolved in PBS and solubilized with NaOH (35%) until complete dissolution of the product.

In assay [2] the test system is CD34^+ cells from PV patients. The experiment in a line: BFU-E from CD34+ cells of PV patients treated with furosemide. The following applies: 5 and 20 μg/mL of furosemide, 100% = absence of furosemide. In kind it is cell-based, human. The method, then: FIG. 9: CA1 protein expression and furosemide treatment of CD34^+ cells from PV patients. (A) CA1 protein expression in human CD34^+ cells from control and JAK2^V617F PV patients (left) (n=4) and (B) CA1 expression level normalized against GAPDH expression level (right). (C) Effects of 5 and 20 μg/mL of furosemide on the percentages of BFU-E from CD34^+ cells of PV patients (n=4). 100% is used as percentage of BFU-E in the absence of furosemide (N.T.). N) Relative percentage of JAK2^V617F Variant Allele Frequency (VAF) in the BFU-E after treatment with 5 and 20 ug/mL of furosemide. 100% is used as percentage of VAF in the BFU-E in the absence of furosemide (N.T.). Data are mean +/−s.e.m. Significance was assessed using unpaired 2-tailed t test and two way ANOVA followed by post-hoc analysis (*<0.05, **<0.01, ***<0.001, ****<0.0001).
Whole-transcriptome RNA-seq on CD34+ cell from Patients. The patients were selected for their high JAK2^V617F variant allele frequency (from 60 to 100% VAF). […] The RNA integrity (RNA Integrity Score>7.0) was checked on the Agilent 2100 Bioanalyzer (Agilent) and quantity was determined using Qubit (Invitrogen). […]

Assay [3] deals with ICN1 leukemic cells. Put plainly: ICN1 leukemia in vivo survival. More on the design: species or system mouse. The protocol:
ICN1 leukemia. Non-conditioned C57BL/6J (CD45.2) recipient mice were intravenously transplanted with 1.5×10^4 ICN1 leukemic cells in 100 uL of PBS. Seven days after transplantation, when blast cells are detected in the peripheral blood, recipient mice were daily treated or not by intravenous injection of furosemide at 20 mg/Kg.

For the molecule `CC(=O)S[C@@H]1CC2=CC(=O)CC[C@]2(C)[C@H]2CC[C@@]3(C)[C@@H](CC[C@@]34CCC(=O)O4)[C@H]12` [Spironolactone], the PV associated symptoms result in assay [1] (spironolactone 250 mg/Kg in water bottles, starting 2 weeks after transplantation) was “no effect”. The “survival of mice with PV” value in assay [1] (spironolactone 250 mg/Kg in water bottles, starting 2 weeks after transplantation (FIG. 5d)) is on record as “no effect”.

`NS(=O)(=O)c1cc(C(=O)O)c(NCc2ccco2)cc1Cl` [Furosemide, 4-chloro-2-(furan-2-ylmethylamino)-5-sulfamoylbenzoic acid]: the “therapeutic effect (blood chimerism, spleen weight)” value in assay [1] (furosemide 5 mg/Kg daily, starting two weeks after transplantation, compared with 20 mg/Kg (FIG. 8)) was “therapeutic effect similar to the one obtained with 20 mg/Kg”. Moreover, the survival rate entry in assay [1] (furosemide 20 mg/Kg daily intravenous, starting 2 weeks after transplantation (FIG. 4i)) is “improved”; in assay [3] (furosemide 20 mg/Kg daily intravenous, starting 1 week after transplantation of 1.5×10^4 ICN1 leukemic cells (FIG. 7)), “improved survival rate is also reproduced”. Besides, the “JAK2^V617F cell burden in blood” value in assay [1] (furosemide 20 mg/Kg daily intravenous, starting 2 weeks after transplantation of JAK2^V617F BM cells (FIG. 4g)) is “decreased”. Besides, the spleen weight entry in assay [1] (furosemide 20 mg/Kg daily intravenous, starting 2 weeks after transplantation, 8 weeks later (FIG. 4h)) was “decreased”; in assay [1] (furosemide daily after PV establishment, starting 10 weeks after transplantation (FIG. 4l)), “decreased”. The PV blood parameters entry in assay [1] (furosemide 20 mg/Kg daily intravenous, starting 2 weeks after transplantation, hematocrit and red blood cells count) was “decreased”. Also, the “JAK2^V617F LT-HSC contribution to the LT-HSC compartment” value in assay [1] (furosemide after PV establishment, before treatment (10 weeks) vs end of treatment (31 weeks) (FIG. 4m)) is listed as “significant decrease”. The survival result in assay [1] (furosemide daily after PV establishment, starting 10 weeks after transplantation) is given as “survival of the treated mice”. Moreover, in assay [1] (furosemide daily after PV establishment, starting 10 weeks after transplantation (FIG. 4j)), the “blood JAK2^V617F cell burden” value is “rapid, stable and Furosemide-dependent decrease”. In addition, the hematocrit result in assay [1] (furosemide daily after PV establishment, starting 10 weeks after transplantation (FIG. 4k)) is “decreased”. For the same molecule, the “JAK2^V617F variant allele frequency in the BFU-E” value in assay [2] is recorded as “decreased”. For the same molecule, in assay [2] (n=4), the “percentages of BFU-E” value was “decreased”. Also, the “in vivo leukemia progression” value in assay [3] (furosemide daily, starting 1 week after transplantation (FIG. 7)) was “Slowing”.
